This data set in a line: gradient 5% acetonitrile 3 min, to 50% in 2 min, to 85% in 15 min, held 3 min, 100 µL/min. The note with it: column: Zorbax Extend-C18 2.1 x 50 mm; eluents: water / acetonitrile, 0.1% formic acid. The method, boiled down:
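Retention time was recorded from adduct peaks, which were picked computationally and each inspected manually. Pure standards ran in mixtures of ~100 molecules on HPLC coupled to a quadrupole time-of-flight mass spectrometer, in positive and negative ionization mode, through a Zorbax Extend-C18 column (2.1 × 50 mm, 1.8 μm) at 100 μL/min. Eluents were water and acetonitrile, each with 0.1% formic acid.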
With `COCCOC1CCN(C(=O)c2cccs2)CC1`, the RP-LC retention time was 665 s. The result for `CCn1cc(C2=CCN(C(=O)Nc3ccc(SC)cc3)CC2)c2cccnc21` reads 910 s; that for `CCOc1ccc(NC(=O)C2CCN(S(=O)(=O)c3cc(-c4noc(C)n4)cs3)CC2)cc1`, 917 s. The value for `Cc1cccc(NC(=O)Cn2cnc3nc(N4CCCC(C(=O)NC(C)C)C4)sc3c2=O)c1C` (centres undefined) was 712 s; that for `Cc1ccccc1Cn1nc(-c2nc(-c3ccc(F)cc3)no2)ccc1=O` was 1130 s. The value for `CC1=C(N2CC2)C(=O)C(CO)=C(N2CC2)C1=O` was 585 s. `O=C1CCc2cc(S(=O)(=O)NCCc3ccc(Cl)cc3)cc3c2N1CCC3`: the RP-LC retention time amounted to 903 s. On to `CCNc1cc(N2CCC(CCC(=O)NCc3ccc(F)cc3Cl)CC2)ncn1`, for which the RP-LC retention time is 680 s. Consider `O=C(c1cc(-c2ccncc2)n[nH]1)N1CCC(C(=O)N2CCc3ccccc32)CC1`, for which the RP-LC retention time came out at 614 s. On to `CCN(CC)S(=O)(=O)c1ccc(Cl)c(-c2nnc(-c3ccccc3OC)o2)c1`, for which the RP-LC retention time is 1020 s. The result for `COc1cccc(CNC(=O)CSc2nccnc2N2CCSCC2)c1OC` reads 824 s; that for `O=C(NC1CCCC1)c1ccc2c(c1)nc1n2CCCCC1`, 600 s. Compound `Cc1ccc(Sc2nccnc2N2CCCC(C(=O)N3CCN(c4ccccn4)CC3)C2)cc1` (centres undefined) came in with an RP-LC retention time of 768 s. On to `CCc1cccc(C)c1NC(=O)Cn1ncc2c(N3CCN(c4ccccn4)CC3)ncnc21`, for which the RP-LC retention time amounted to 570 s.

Consider `CCc1nc(OCC(=O)Nc2cc(OC)ccc2OC)c2ccccc2n1`, for which the RP-LC retention time was found to be 821 s. The result for `O=C(Cc1ccc(NC(=O)Nc2ccccc2Cl)cc1)NCC(F)(F)F` reads 696 s. The result for `Cc1noc(-c2ccc(NC(=O)c3cccnc3)cc2)n1` reads 824 s; that for `O=C(CN1CCC(c2nc(-c3ccc(F)cc3)no2)CC1)NC1CCCCC1`, 715 s.

Turning to `O=C(C1CCN(Cc2cc3ccccc3n2Cc2cccc(F)c2)CC1)N1CCCC1`, the RP-LC retention time turned out to be 721 s. Consider `O=C(Cn1cnc2nc(N3CCCC(C(=O)NC4CC4)C3)sc2c1=O)Nc1ccc2c(c1)CCC2` (centres undefined), for which the RP-LC retention time was determined as 744 s. The value for `CCOCCCNC(=O)Cn1c(-c2cccs2)cc2cc(F)ccc21` was 946 s; that for `Cc1cccc(C)c1OCC(=O)Nc1nc(-c2ccccc2)cs1` was 1180 s. The compound `COC(=O)c1cccc(-c2nc(C3CC(=O)N(c4ccc(F)cc4)C3)no2)c1` (centres undefined) came in with an RP-LC retention time of 884 s.

`c1ccc(CN2CCN(Cc3cnoc3-c3ccccc3)CC2)cc1` gave an RP-LC retention time of 689 s. For the compound `CCOC(=O)C1CCN(c2cc3c(cc2NC(=O)CC(C)C)n(C)c(=O)c(=O)n3C)CC1`, the RP-LC retention time came out at 822 s. Regarding `COC(=O)c1ccc(NC(=O)N2CC(C)Oc3ccc(C)cc32)cc1` (centres undefined), the RP-LC retention time was found to be 1220 s. The result for `CCc1noc(NC(C)=O)c1-c1ccc(C)c(S(=O)(=O)N2CCN(C(=O)c3ccco3)CC2)c1` reads 758 s; that for `CCN1C(=O)c2cccnc2Sc2cc(NC(=O)COC)ccc21`, 655 s; that for `O=C(Nc1ccc(C(F)(F)F)cc1)c1cnc(-c2ccccc2)nc1-c1ccncc1`, 1010 s. `CC(=O)Nc1ccc(NC(=O)c2ccc3noc(-c4ccc(Cl)cc4)c3c2)cc1` had an RP-LC retention time of 817 s.

As for `O=C(NCc1ccccc1Cl)c1c(O)c2cccc3c2n(c1=O)CC3`, the RP-LC retention time is 1180 s. Turning to `O=C(NCc1ccncc1)C1CN(S(=O)(=O)C2CC2)CC12CCCCC2` (centres undefined), the RP-LC retention time stood at 598 s. The result for `O=C(Nc1nc(-c2ccccc2)cs1)c1cncc(Br)c1` reads 998 s; that for `Oc1cccc(-c2nc3cnc(Br)cn3c2Nc2ccc3c(c2)OCCO3)c1`, 794 s; that for `Cc1oc(C2CCN(C(=O)Nc3ccc4c(c3)CCC4)CC2)nc1C(=O)N1CCCC1`, 861 s. The value for `COc1cccc(C(=O)N2CCC(c3cc(N)on3)CC2)c1OC` was 639 s; that for `Cc1cc(NS(=O)(=O)c2c(C)noc2C)n(C2CCS(=O)(=O)C2)n1` (centres undefined) was 676 s. The compound `CCc1ccc(-c2cc3c(=O)n(Cc4noc(CN5CCC(C)CC5)n4)ccn3n2)cc1` registered an RP-LC retention time of 757 s. For the compound `Cc1cc(S(=O)(=O)N2CCC(n3c(-c4ccoc4)nc4cccnc43)C2)ccc1F` (centres undefined), the RP-LC retention time is 827 s. On to `Cc1sc(-c2cc(C(F)(F)F)on2)cc1S(=O)(=O)NCCC(C)C`, for which the RP-LC retention time is 1200 s.

`O=C([C@@H]1C[C@H](F)CN1S(=O)(=O)c1cccc(F)c1)N1CCCCC1` showed an RP-LC retention time of 805 s. `CCOc1ccccc1OCc1nn2c(COc3ccc(F)cc3)nnc2s1` registered an RP-LC retention time of 1000 s. The value for `CCCN1C(=O)c2cc(S(=O)(=O)N3CCCC3)ccc2Oc2cccnc21` was 913 s. Regarding `CCOC(=O)C1CCN(Cc2nc(-c3ccc(N4CCC(C)CC4)nc3)no2)CC1`, the RP-LC retention time was 745 s. `CC(C)Sc1nccn2nc(-c3cccs3)cc12`: the RP-LC retention time turned out to be 1280 s. As to `CCOc1ccccc1-c1nc(C2CC(=O)N(c3ccc(CC)cc3)C2)no1` (centres undefined), the RP-LC retention time turned out to be 1130 s.

The compound `Cc1ccc(NS(=O)(=O)c2c(C)c(-c3nnc(C4CCC4)o3)n(C)c2C)cc1` showed an RP-LC retention time of 918 s. The result for `CNC(=O)c1cc(=O)[nH]c2c(Cl)cccc12` reads 596 s; that for `COc1cc(NC(=O)N2CCC(N3CCN(Cc4ccc(F)cc4)C(=O)C3=O)CC2)cc(OC)c1`, 724 s. The result for `Cc1ccc(CNC(=O)c2ccc3c(=O)n(Cc4ccccc4)c(N4CCCC4)nc3c2)o1` reads 683 s; that for `CCC(C(=O)N1CCN(c2cc(-c3ccc(Cl)cc3)[nH]n2)CC1)c1ccccc1` (centres undefined), 987 s; that for `COC(=O)C1C(=O)C2=C(CC1C)NC(=O)CC2c1cccc(OC)c1` (centres undefined), 726 s.

Compound `COc1ccc(Cc2nc3nccc(-c4ccc(F)cc4)n3n2)cc1` gave an RP-LC retention time of 882 s. `Cn1c(N2CCCN(C(=O)c3ccc(F)c(F)c3)CC2)cc(=O)n(C)c1=O`: the RP-LC retention time was 660 s.

In turn, `N#CCCSc1ccccc1NC(=O)c1ccc(S(=O)(=O)N2CCCCCC2)cc1` registered an RP-LC retention time of 946 s. The result for `COc1ccccc1CNC(=O)C1CCCN(c2nn3c(=O)c4c(nc3s2)CCCC4)C1` (centres undefined) reads 737 s.

For the compound `COCCN1C(=O)c2ccccc2C(C(=O)Nc2ccc(NC(C)=O)cc2)C12CCCCC2` (centres undefined), the RP-LC retention time came out at 706 s. The result for `COc1cc(NC(=O)c2[nH]c3cc(C)sc3c2CN2CCOCC2)cc(OC)c1` reads 718 s. The value for `CN(C)c1nc2ncn3c(=O)n(CC(=O)NC4CCCCC4)nc3c2s1` was 663 s; that for `Cc1ccc(NS(=O)(=O)c2cn(CC(C)C)c3ncccc23)c(C)c1` was 1050 s. The result for `Cc1nc(-c2noc(-c3ccc(F)cc3)n2)cn1CC(=O)NCc1ccc(F)cc1` reads 832 s; that for `CCC(C(=O)NCCCN1CCOCC1)n1c2ccccc2c2cnn(C)c(=O)c21` (centres undefined), 609 s.

For the compound `CCn1cc(CC(=O)NC2CCCCCC2)c2cccnc21`, the RP-LC retention time turned out to be 768 s.

On to `Cc1c(C(=O)N2CCCC2)cnn1-c1cc(-c2nc(C3CC3)no2)ccn1`, for which the RP-LC retention time came out at 864 s. The value for `Cc1cccc(-c2noc(Cn3c(=O)n(-c4ccc(F)cc4)c(=O)c4sccc43)n2)c1` was 1030 s. On to `O=C(NCc1cccs1)C1CCCN(S(=O)(=O)c2cc(-c3noc(C4CCC4)n3)cs2)C1` (centres undefined), for which the RP-LC retention time was determined as 1070 s. The result for `COC(=O)c1ccc(NC(=O)N(C)c2ccccc2)cc1` reads 771 s; that for `COc1ccccc1-c1noc(Cn2c(=O)n(C(C)C)c(=O)c3ccccc32)n1`, 994 s. Compound `CCCC(=O)Nc1ccc2c(c1)N(C(=O)c1cccs1)CCC2` displayed an RP-LC retention time of 801 s. The result for `CN(C)CCCN1c2ccc3ccccc3c2Sc2cccc(Cl)c21` reads 792 s. In turn, `CCOC(=O)c1[nH]c(C)c(CCC(=O)N2CCC(C(=O)NCC3CCCO3)CC2)c1C` (centres undefined) gave an RP-LC retention time of 670 s. The result for `Cc1nnc(-c2coc(S(=O)(=O)N3CCC(N4CCCCC4)CC3)c2)o1` reads 615 s. In turn, `CCOc1ccc(-c2noc(N3CCC(C(=O)N4CCOCC4)CC3)n2)cc1OC` registered an RP-LC retention time of 736 s. The value for `COc1cc(NC(=O)CSc2nnnn2C)c2ncccc2c1` was 724 s. As to `O=C(c1ccc(F)c(Cl)c1)N1CCN(c2cc(-c3ccc(F)cc3)[nH]n2)CC1`, the RP-LC retention time was found to be 894 s. Turning to `CCn1cc(CCN2CCN(C(=O)C3CCCCC3)CC2)c2cccnc21`, the RP-LC retention time amounted to 613 s. In turn, `CC(=O)NCc1nc(-c2ccc(S(=O)(=O)N3CCC(C(=O)N4CCCC4)CC3)cc2)no1` gave an RP-LC retention time of 639 s. In the case of `O=C(Nc1ccc2ncsc2c1)c1cc(Cl)sc1Cl`, the RP-LC retention time amounted to 852 s. The value for `CCOC(=O)N1CCN(C(=O)CCC2CCN(c3cc(NC4CC4)ncn3)CC2)CC1` was 561 s.

(Values after the METLIN SMRT retention time set (Domingo-Almenara et al. 2019).)
